According to US20250195490A1, “ALPHA-METHYLENE AND AMINOMETHYL LACTONES AND LACTAMS FOR TREATMENT OF CLOSTRIDIOIDES DIFFICILE INFECTION (CDI)” (Purdue Research Foundation, priority 2022, published 2025):
Values after ≈ are worked out from the molar mass of the structure shown.

Assays:
MRSA (USA300) = experiment: microbe, parasite or virus in culture; assay type: cell-based, Staphylococcus aureus; conditions: aerobic, 37° C., at least 18 hours
Experimental: (§1) Method: The minimum inhibitory concentration (MIC) of the compounds and control drugs, linezolid (antibiotic), vancomycin (antibiotic), 5-fluorocytosine (5-FC, antifungal drug), and fluconazole (antifungal drug) was determined using the broth microdilution method according to the guidelines outlined by the Clinical and Laboratory Standards Institute (CLSI) against clinically relevant bacterial (methicillin-resistant Staphylococcus aureus (MRSA), vancomycin-resistant Enterococcus faecalis (VRE), vancomycin-resistant Enterococcus faecium (VRE), Clostridioides difficile and Escherichia coli) and fungal (Candida albicans) strains. A solution equivalent to 0.5 McFarland standard was prepared from each strain and diluted in cation-adjusted Mueller-Hinton broth (for S. aureus and E. coli), tryptone soy broth (for E. faecalis), or brain heart infusion broth (for E. faecium) to achieve a bacterial inoculum of about 5×10^5 CFU/mL. C. difficile strains were cultured in brain heart infusion broth supplemented with hemin and vitamin K. C. albicans was diluted in RPMI medium supplemented with 3-(N-morpholino) propanesulfonic acid to achieve a fungal concentration of about 1.5×10^3 CFU/mL. Compounds and control drugs were added in the first row of the 96-well plates and diluted with media containing bacteria (to achieve a concentration gradient ranging from 128 to 1 μg/mL). For MRSA, VRE, and E. coli strains, plates were then incubated aerobically at 37° C. for at least 18 hours. C. albicans was incubated aerobically at 37° C. for 24 hours. Plates containing C. difficile were incubated anaerobically at […] for 48 hours.

E. faecalis (VRE) = experiment: microbe, parasite or virus in culture; assay type: cell-based, Enterococcus faecalis; conditions: aerobic, 37° C., at least 18 hours
Experimental: as §1

Clostridioides difficile = experiment: MIC by broth microdilution against Clostridioides difficile (Table 1); assay type: cell-based; conditions: anaerobic, 48 hours; strain BAA-1870
Experimental: as §1

E. coli (TolC mutant) = experiment: MIC by broth microdilution against E. coli (TolC mutant); assay type: cell-based, Escherichia coli; conditions: aerobic, 37° C., at least 18 hours
Experimental: as §1

[1] = test system: hypervirulent Clostridioides difficile strains; experiment: MIC against hypervirulent Clostridioides difficile strains; assay type: cell-based
Experimental: (§2) The antibacterial activity of compounds 48, 50, 51, 61 and 85 against a panel of Clostridioides difficile strains was evaluated. A bacterial solution equivalent to 0.5 McFarland standard was prepared and diluted in brain heart infusion broth supplemented with hemin and vitamin K. Compounds and control drugs were added in the first row of 96-well plates and serially diluted with media containing bacteria (to achieve a concentration gradient ranging from 128 to 1 μg/mL). Plates were then incubated anaerobically at […] for 48 hours.

[2] = test system: clinically important Clostridioides difficile strains; experiment: MIC against clinically important Clostridioides difficile strains; assay type: cell-based
Experimental: as §2

L. gasseri = experiment: MIC against human normal gut microbiota: L. gasseri; assay type: cell-based, Lactobacillus gasseri; conditions: L. gasseri HM 407
Description: (§3) The activity of the selected lactones against the human gut microbiota was also examined. Microbiota interfere with C. difficile's ability to colonize the gastrointestinal tract and subsequently cause infection. Many antibiotics inhibit/kill the endogenous microflora, which permits enhanced colonization by C. difficile and infection. Three different bacterial species that are present in the gut microflora were used in this experiment; Bifidobacterium (anaerobic Gram-positive bacteria), Bacteroides (anaerobic Gram-negative bacteria) and Lactobacillus (microaerophilic Gram-positive bacteria). Ideal compounds/drugs are those with selective antibacterial activity against C. difficile so as to protect the indigenous microflora present in the GI tract from being damaged/killed (which will exacerbate infections caused by C. difficile).
(§4) Bifidobacterium and Bacteroides were first grown for 48 hours at 37° C., anaerobically, using brain heart infusion supplemented (BHIS) agar (brain heart infusion agar supplemented with hemin, vitamin K and L-cysteine). Lactobacillus was cultivated on MRS agar and incubated in the presence of 5% CO2 for 48 hours at 37° C. Each bacterium was suspended in phosphate-buffered saline (PBS) to achieve 0.5 McFarland standard and subsequently diluted in brain heart infusion supplemented broth (for Bifidobacterium and Bacteroides) or in MRS broth (for Lactobacillus) to achieve a bacterial inoculum of approximately 5×10^5 CFU/mL. Bacteria were then seeded in 96-well plates containing serial dilutions of the compounds and incubated for 48 hours. MICs reported in Table 4 are the minimum concentration of compound/control drug that inhibited the visual growth of bacteria.

L. casei = experiment: MIC against human normal gut microbiota: L. casei; assay type: cell-based, Lactobacillus casei; conditions: L. casei HM 334
Description: as §3, §4

L. reuteri = experiment: MIC against human normal gut microbiota: L. reuteri; assay type: cell-based, Lactobacillus reuteri; conditions: L. reuteri HM 120
Description: as §3, §4

L. crispatus = experiment: MIC against human normal gut microbiota: L. crispatus; assay type: cell-based, Lactobacillus crispatus
Description: as §3, §4

Ba. fragilis = experiment: MIC against human normal gut microbiota: Bacteroides fragilis; assay type: cell-based
Description: as §3, §4

Ba. dorsei = experiment: MIC against human normal gut microbiota: Bacteroides dorsei; assay type: cell-based
Description: as §3, §4

Bi. breve = experiment: MIC against human normal gut microbiota: Bifidobacterium breve; assay type: cell-based; conditions: Bi. breve HM 856
Description: as §3, §4

Bi. longum = experiment: MIC against human normal gut microbiota: Bifidobacterium longum; assay type: cell-based; conditions: Bi. longum HM 848
Description: as §3, §4

C. albicans = experiment: Broth microdilution against Candida albicans; assay type: cell-based; conditions: gradient 128 to 1 μg/mL, 24 hours
Experimental: as §1

E. faecium = experiment: Broth microdilution against vancomycin-resistant E. faecium; assay type: cell-based, Enterococcus faecium; conditions: gradient 128 to 1 μg/mL
Experimental: as §1

In the case of `CC(C)(C)[Si](C)(C)OCCC1OC(=O)C(CN2CCCCC2)C1c1cccc(Br)c1` (racemic) [Compound 48], the “MIC MRSA (USA300)” value (MRSA (USA300)) is reported as >128 µg/mL, the “MIC E. faecalis (VRE)” value (E. faecalis (VRE)) is reported as >128 µg/mL and the “MIC Clostridioides difficile” value (Clostridioides difficile) is reported as 8 µg/mL (≈ 16.1 µM). The “MIC E. coli (TolC mutant)” value (E. coli (TolC mutant)) was >128 µg/mL, the MIC ([1]; CD strain 81) was 16 µg/mL (≈ 32.2 µM) and the MIC ([1]; CD strain 82) was 8 µg/mL (≈ 16.1 µM). For the same compound, the MIC ([1]; CD strain 83) was 8 µg/mL (≈ 16.1 µM), the MIC ([1]; CD strain 84) was 8 µg/mL (≈ 16.1 µM) and the MIC ([1]; CD strain 85) was 8 µg/mL (≈ 16.1 µM). It also gave an MIC ([1]; CD strain 86) of 8 µg/mL (≈ 16.1 µM), an MIC ([1]; CD strain 87) of 4 µg/mL (≈ 8.06 µM) and an MIC ([1]; CD strain 90) of 4 µg/mL (≈ 8.06 µM). For the same compound, the MIC ([1]; CD strain 49279) was 8 µg/mL (≈ 16.1 µM), the MIC ([1]; CD strain 49287) was 4 µg/mL (≈ 8.06 µM) and the MIC ([1]; CD strain 49291) was 4 µg/mL (≈ 8.06 µM). It also gave an MIC ([2]; CD strain 16) of 4 µg/mL (≈ 8.06 µM), an MIC ([2]; CD strain 18) of 2 µg/mL (≈ 4.03 µM) and an MIC ([2]; CD strain 19) of 4 µg/mL (≈ 8.06 µM). It also gave an MIC ([2]; CD strain 1801) of 8 µg/mL (≈ 16.1 µM), an MIC ([2]; CD strain 43255) of 8 µg/mL (≈ 16.1 µM) and an MIC ([2]; CD strain P6) of 8 µg/mL (≈ 16.1 µM). For the same compound, the MIC ([2]; CD strain P7) was 2 µg/mL (≈ 4.03 µM), the MIC ([2]; CD strain P13) was 2 µg/mL (≈ 4.03 µM) and the MIC ([2]; CD strain P19) was 2 µg/mL (≈ 4.03 µM). The MIC (L. gasseri) was >128 µg/mL, the MIC (L. casei) was >128 µg/mL and the MIC (L. reuteri) was >128 µg/mL. The MIC (L. crispatus; L. crispatus HM 375) was >128 µg/mL, the MIC (L. crispatus; L. crispatus HM 421) was >128 µg/mL and the MIC (Ba. fragilis; Ba. fragilis HM 709) was >128 µg/mL. For the same compound, the MIC (Ba. fragilis; Ba. fragilis HM 710) was >128 µg/mL, the MIC (Ba. fragilis; Ba. fragilis HM 711) was >128 µg/mL and the MIC (Ba. fragilis; Ba. fragilis HM 714) was >128 µg/mL. The MIC (Ba. dorsei; Ba. dorsei HM 29) was >128 µg/mL, the MIC (Ba. dorsei; Ba. dorsei HM 717) was >128 µg/mL and the MIC (Bi. breve) was >128 µg/mL. For the same compound, the MIC (Bi. longum) was >128 µg/mL, the “activity against C. albicans” value (C. albicans) was “inactive” and the “inhibition of the tested strains of E. faecium” value (E. faecium) was “did not inhibit”.
With `C=C1C(=O)OC(CCCCCCCC)C1C=Cc1ccccc1` (racemic) [Compound 51] the “MIC MRSA (USA300)” value (MRSA (USA300)) was >128 µg/mL, the “MIC E. faecalis (VRE)” value (E. faecalis (VRE)) was >128 µg/mL and the “MIC Clostridioides difficile” value (Clostridioides difficile) was 8 µg/mL (≈ 25.6 µM). The “MIC E. coli (TolC mutant)” value (E. coli (TolC mutant)) was >128 µg/mL, the MIC ([1]; CD strain 81) was 16 µg/mL (≈ 51.2 µM) and the MIC ([1]; CD strain 82) was 16 µg/mL (≈ 51.2 µM). The MIC ([1]; CD strain 83) was 16 µg/mL (≈ 51.2 µM), the MIC ([1]; CD strain 84) was 64 µg/mL (≈ 205 µM) and the MIC ([1]; CD strain 85) was 64 µg/mL (≈ 205 µM). It also gave an MIC ([1]; CD strain 86) of 32 µg/mL (≈ 102 µM), an MIC ([1]; CD strain 87) of 32 µg/mL (≈ 102 µM) and an MIC ([1]; CD strain 90) of 4 µg/mL (≈ 12.8 µM). It also gave an MIC ([1]; CD strain 49279) of 16 µg/mL (≈ 51.2 µM), an MIC ([1]; CD strain 49287) of 8 µg/mL (≈ 25.6 µM) and an MIC ([1]; CD strain 49291) of 8 µg/mL (≈ 25.6 µM). The MIC ([2]; CD strain 16) was 16 µg/mL (≈ 51.2 µM), the MIC ([2]; CD strain 18) was 2 µg/mL (≈ 6.4 µM) and the MIC ([2]; CD strain 19) was 16 µg/mL (≈ 51.2 µM). The MIC ([2]; CD strain 1801) was 32 µg/mL (≈ 102 µM), the MIC ([2]; CD strain 43255) was 16 µg/mL (≈ 51.2 µM) and the MIC ([2]; CD strain P6) was 8 µg/mL (≈ 25.6 µM). For the same compound, the MIC ([2]; CD strain P7) was 16 µg/mL (≈ 51.2 µM), the MIC ([2]; CD strain P13) was 2 µg/mL (≈ 6.4 µM) and the MIC ([2]; CD strain P19) was 16 µg/mL (≈ 51.2 µM). The MIC (L. gasseri) was >128 µg/mL, the MIC (L. casei) was >128 µg/mL and the MIC (L. reuteri) was >128 µg/mL. The MIC (L. crispatus; L. crispatus HM 375) was >128 µg/mL, the MIC (L. crispatus; L. crispatus HM 421) was >128 µg/mL and the MIC (Ba. fragilis; Ba. fragilis HM 709) was >128 µg/mL. For the same compound, the MIC (Ba. fragilis; Ba. fragilis HM 710) was >128 µg/mL, the MIC (Ba. fragilis; Ba. fragilis HM 711) was >128 µg/mL and the MIC (Ba. fragilis; Ba. fragilis HM 714) was >128 µg/mL. For the same compound, the MIC (Ba. dorsei; Ba. dorsei HM 29) was >128 µg/mL, the MIC (Ba. dorsei; Ba. dorsei HM 717) was >128 µg/mL and the MIC (Bi. breve) was >128 µg/mL. The MIC (Bi. longum) was >128 µg/mL, the “activity against C. albicans” value (C. albicans) was “inactive” and the “inhibition of the tested strains of E. faecium” value (E. faecium) was “did not inhibit”.
